Common to all, as to experiment: pTyr-Var library bacterial peptide display kinase screen (enrichment scores)
One assay has as its target c-Src kinase domain (Homo sapiens, UniProt P12931). It is filed as biochemical. As to conditions: sheet "Src".
A further assay relates to Fer kinase domain. The class given is biochemical, mouse. As to conditions: sheet "Fer".
Another assay addresses T1, c-Abl kinase domain (Mus musculus, UniProt P00520).
T1 sequence (P00520 242-493 limits assumed): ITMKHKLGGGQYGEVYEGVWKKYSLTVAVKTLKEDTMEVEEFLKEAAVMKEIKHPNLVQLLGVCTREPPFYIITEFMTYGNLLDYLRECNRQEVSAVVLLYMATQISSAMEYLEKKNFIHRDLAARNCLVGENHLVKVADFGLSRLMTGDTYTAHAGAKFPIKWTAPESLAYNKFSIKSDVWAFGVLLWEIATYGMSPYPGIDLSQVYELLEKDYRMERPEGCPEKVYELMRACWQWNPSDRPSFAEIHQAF
The class given is biochemical.

In another assay the test system is EPHB2 kinase domain. It is filed as biochemical, human. The settings on record: sheet EPHB2.
A further assay concerns EPHB1 kinase domain. The class given is biochemical, human. The settings on record: for Screen: sheet EPHB1, effect of the variant peptide relative to its reference peptide in the pTyr-Var library screen (enrichment scores); for Screen (variant relative to reference peptide, measured in the pTyr-Var library screen): sheet "EPHB1", variant seq vs reference seq, bacterial peptide display enrichment.

The mark [1] stands for this setting: variant peptide versus its reference peptide in the pTyr-Var library screen.
Setting [2] is: value of the variant peptide against its reference peptide in the pTyr-Var library screen with Fer.
Where [3] appears, read: sheet "Abl", effect of variant peptide relative to its reference peptide in pTyr-Var library screen (enrichment).
Where [4] appears, read: effect of the variant peptide relative to its reference peptide in the pTyr-Var library screen.
The mark [5] stands for this setting: effect of variant peptide relative to its reference peptide in the pTyr-Var library screen (enrichment scores).
[6] abbreviates: fig5-data2, sheet "Abl", Screen for the variant/reference peptide pair, pTyr-Var library.
Setting [7] is: variant peptide relative to its reference peptide, pTyr-Var library screen enrichment.
Setting [8] is: effect of the variant relative to its reference peptide in the pTyr-Var library screen.

In the case of ACEVLYNIVFM [NCF2_Y125_A128V], the Screen is listed as 0.004351 on c-Src kinase domain (setting [1]) and 0.5953 with Fer kinase domain (setting [2]).

As for ADDSFYTVRSA [ZAP70_Y493_A495V_YF], the Screen at c-Src kinase domain (setting [1]) is reported as 1.093; at c-Abl kinase domain (setting [3]), -3.301.

AEDKPYAELWT [MPI_Y46_M51T]: the values for the Screen at c-Src kinase domain (setting [4]) and with Fer kinase domain (setting [2]) were -0.4439 and -0.5845, respectively.

On to AHARMYGVLPW [PLP1_Y207_D203H], for which the Screen at c-Src kinase domain (setting [1]) is listed as -1.491; in the assay with EPHB2 kinase domain (setting [5]), -2.408.

Take ANAFIYDVQLP [L1CAM_Y420_V421D_YF]: the results for the Screen on c-Src kinase domain (setting [4]) and with EPHB1 kinase domain were 2.894 and 1.352, respectively.

Regarding CKSIHYDLVFL [COL22A1_Y37_V35I], the Screen with Fer kinase domain (setting [2]) was -0.07246.

In the case of EAAFVYVISSA [WNT4_Y113_A114V], the Screen is reported as -2.147 at c-Src kinase domain (setting [1]) and 1.673 on c-Abl kinase domain (setting [3]).

Regarding EACPSYSHVVL [CHST6_Y168_R166P], the Screen in the assay on Fer kinase domain (setting [2]) turned out to be 2.885.

As to EGTATYAAAIL [JUP_Y644_V648I], the Screen in the assay with Fer kinase domain (setting [2]) is 0.5368; in the assay with EPHB2 kinase domain (setting [5]), 0.4332.

In the case of FDNPIYQKTTE [LDLR_Y828_V827I], the values for the Screen on c-Abl kinase domain (setting [6]) and in the assay on Fer kinase domain (setting [2]) were 2.749 and 1.939, respectively.

Regarding FEKFLYFLPAS [DYNC2H1_Y346_H341Y_YF], the Screen in the assay with EPHB1 kinase domain is on record as -0.7762.

Consider FFLGAYDRFLP [SLC22A5_Y486_V481F_YF], for which the Screen at c-Src kinase domain (setting [1]) is -0.1466; on c-Abl kinase domain (setting [3]), -0.3891; with EPHB2 kinase domain (setting [5]), -0.4331.

As for FGCGMYSHLQG [LGR4_Y848_D844G_YF], the Screen at c-Src kinase domain (setting [4]) is listed as -0.3661; with Fer kinase domain (setting [2]), -1.105.

Consider FISLIYTNFEV [GSTP1_Y109_A114V_YF], for which the figures for the Screen on c-Src kinase domain (setting [4]), at c-Abl kinase domain (setting [6]) and in the assay with Fer kinase domain (setting [2]) were 0.2277, 1.388 and 1.457, respectively.

With FVFSFYHAFSG [ACTN4_Y265_S262F_YF], the Screen at c-Src kinase domain (setting [4]) is reported as -2.513; with EPHB1 kinase domain, -0.8684.

Consider GADAIYDHVNE [UQCR10_Y44_I47V], for which the Screen on c-Src kinase domain (setting [1]) was -0.3881; in the assay with Fer kinase domain (setting [7]), 0.2964; in the assay with EPHB2 kinase domain (setting [8]), 0.825.

As for GEEIKYMLWLL [OTC_Y55_S60L], in the assay with Fer kinase domain (setting [2]), the Screen is on record as 1.219.

Consider GESKDYALHAG [SVIL_Y185_V189A], for which, in the assay on EPHB1 kinase domain, the “Screen (variant relative to reference peptide, measured in the pTyr-Var library screen)” value is reported as -2.109.

Take GNLLIYTDFGK [HGD_Y166_E168D]: the Screen at c-Src kinase domain (setting [4]) was -0.3604; in the assay on EPHB1 kinase domain, 0.7596.

Sequence GQDLLYEDEDL [PACS1_Y303_F302L] gave a Screen with Fer kinase domain (setting [2]) of 0.4548.

With HFPDVYAWEQL [ALX3_Y181_R183W_YF], the Screen came to 2.591 on c-Src kinase domain (setting [4]) and 4.265 in the assay with Fer kinase domain (setting [2]).

Consider HNQDDYSFPSR [LDLR_Y845_G844D_YF], for which the Screen in the assay on EPHB2 kinase domain (setting [5]) was determined as 1.141.

As to HRGHLYLAIEF [TEK_Y899_Y897H_YF], at c-Src kinase domain (setting [1]), the Screen was determined as 2.155. In addition, the “Screen (variant relative to reference peptide, measured in the pTyr-Var library screen)” value in the assay on EPHB1 kinase domain turned out to be 0.9917.

Take HVKHNYECLVF [XRCC5_Y416_I412V_YF]: the “Screen (variant relative to reference peptide, measured in the pTyr-Var library screen)” value in the assay on EPHB1 kinase domain is -0.4743.

IGMLIYFARKA [VCAM1_Y718_I716L] had a Screen in the assay with EPHB2 kinase domain (setting [8]) of -1.317.

For the sequence IVRSLYEDVED [VHL_Y185_L188V], the Screen came to 2.296 on c-Abl kinase domain (setting [3]) and 0.543 in the assay with Fer kinase domain (setting [7]).

For KKFPDYIQSAM [SGMS2_Y59_I62S_YF], in the assay on EPHB1 kinase domain, the “Screen (variant relative to reference peptide, measured in the pTyr-Var library screen)” value is listed as -3.574.

KNKELYSDPFD [PDE10A_Y300_L303P] had a Screen with Fer kinase domain (setting [2]) of -1.007.

Regarding LADKPYTFEFF [FXN_Y118_D122Y_YF], the Screen at c-Src kinase domain (setting [4]) was -0.4395; with Fer kinase domain (setting [2]), -0.3661; in the assay with EPHB2 kinase domain (setting [5]), -0.8967.

Regarding LESILYESSVV [TRPV4_Y91_T89I], the figures for the Screen on c-Src kinase domain (setting [1]) and in the assay on Fer kinase domain (setting [7]) were -0.6958 and -0.3592, respectively.

In the assay on EPHB2 kinase domain (setting [5]), LGKLTYPVGFW [NTHL1_Y177_I176T] returned a Screen of 0.6291.

Sequence LIGRGYDDPEV [HSPA9_Y128_R127G] came in with a Screen with EPHB2 kinase domain (setting [5]) of -1.099.

Consider LRSRVYEVPVE [SLC26A3_Y756_N753S], for which the Screen with Fer kinase domain (setting [7]) was -0.9023; with EPHB2 kinase domain (setting [5]), -0.8191.

Consider NEKNIYGVPLM [BMPR2_Y247_R248G], for which the figures for the Screen on c-Src kinase domain (setting [4]), in the assay on Fer kinase domain (setting [2]) and with EPHB2 kinase domain (setting [5]) were 1.983, 2.844 and 2.247, respectively.

For PEPHIYAVADV [MYO9A_Y216_L211P], the Screen at c-Src kinase domain (setting [1]) is given as 0.7992; in the assay on Fer kinase domain (setting [2]), 0.8588; in the assay with EPHB2 kinase domain (setting [5]), 0.8276.

Take PIFLFYLMDLS [ITGB2_Y131_D128Y_YF]: the figures for the Screen on c-Src kinase domain (setting [4]) and in the assay with EPHB1 kinase domain were -0.3916 and 1.841, respectively.

With PKSLFYLLLKP [TRPC6_Y775_L780P], the Screen was -1.15 on c-Src kinase domain (setting [1]), -0.7977 in the assay on Fer kinase domain (setting [7]) and -1.737 in the assay with EPHB2 kinase domain (setting [8]).

As for PLDEEYFTLQI [TP53_Y327_G325E], the Screen was -0.5709 at c-Src kinase domain (setting [1]) and -1.267 at c-Abl kinase domain (setting [3]).

For PLDGEYSTLQI [TP53_Y327_F328S], the Screen at c-Src kinase domain (setting [1]) is given as -0.3767; in the assay with Fer kinase domain (setting [7]), 1.6.

As for PLDGEYVTLQI [TP53_Y327_F328V], the Screen at c-Src kinase domain (setting [1]) is -2.053; at c-Abl kinase domain (setting [3]), -0.6513.

Take PLDVEYFTLQI [TP53_Y327_G325V]: the Screen on c-Src kinase domain (setting [1]) was -0.5097; on c-Abl kinase domain (setting [3]) it was -0.7642.

For the sequence RQNNSYTCFTA [SLC20A2_Y386_R382Q_YF], the values for the Screen at c-Src kinase domain (setting [1]) and with EPHB2 kinase domain (setting [5]) were -1.243 and -1.481, respectively.

For SDMGQYQCLVF [AXL_Y115_T112M], the Screen at c-Src kinase domain (setting [4]) came out at 0.2602; with Fer kinase domain (setting [2]), 0.2934.

SRNSKYNAEST [PSEN1_Y315_K311R] returned a Screen on c-Abl kinase domain (setting [6]) of -1.342.

Consider SSWPDYVRPLP [HSPB1_Y54_G53D], for which, in the assay on EPHB1 kinase domain, the Screen is 1.698.

For STTSDYQWDFS [MTDH_Y364_V368F], at c-Abl kinase domain (setting [6]), the Screen is given as -0.6152.

In the case of SVETPYVSVTF [NDRG2_Y47_G48V], the Screen on c-Src kinase domain (setting [1]) is recorded as -1.163; in the assay on Fer kinase domain (setting [2]), -1.711.

At c-Abl kinase domain (setting [3]), SVTCTYPPALN [TP53_Y126_S127P] registered a Screen of 1.141.

The sequence TDGIAYEFRVT [TTN_Y22256_I22261T] showed a Screen at c-Abl kinase domain (setting [3]) of -3.408.

On to TEALFYTDDPA [ADPRS_Y75_T79P_YF], for which the Screen at c-Abl kinase domain (setting [6]) was determined as 1.901.

For the sequence TESALYGCTIL [MAP3K21_Y724_V728I], the Screen at c-Src kinase domain (setting [4]) was 0.3601; in the assay with Fer kinase domain (setting [2]) it was -0.01841.

In the case of TLLAFYMGNFS [GLB1_Y552_P549L], the Screen at c-Abl kinase domain (setting [6]) was -0.5504.

On c-Abl kinase domain (setting [3]), TVLEPYTDPFF [ZC3H18_Y367_A368T_YF] came in with a Screen of 2.315.

On to VGAKTYKMSMA [CPS1_Y309_A304V], for which, on c-Abl kinase domain (setting [6]), the Screen was determined as 0.4399.

On to VIVRMYDFHVL [RPF2_Y109_G106V_YF], for which the figures for the Screen with Fer kinase domain (setting [7]) and in the assay with EPHB2 kinase domain (setting [5]) were -0.9951 and 1.263, respectively.

Turning to VPHECYAKVFD [ALB_Y394_D389V], the Screen on c-Abl kinase domain (setting [6]) is reported as 0.9527.

On c-Abl kinase domain (setting [6]), VRFMAYTDETC [F8_Y450_F455C] showed a Screen of 1.283.

As for VRHRHYKHTHE [CTCF_Y343_R342H], the Screen on c-Abl kinase domain (setting [6]) was -0.4723.

The sequence WAMPAYNRSKL [WWOX_Y293_L291P] came in with a Screen on c-Abl kinase domain (setting [3]) of 4.174.

For the sequence WKEREYEVVRD [CPS1_Y634_I632R], in the assay on EPHB2 kinase domain (setting [5]), the Screen was determined as 0.9502.

For the origin of these results see paper PMC10065799, “High-throughput profiling of sequence recognition by tyrosine kinases and SH2 domains using bacterial peptide display” (eLife, 2023).
